# Measured values reported in patent US9645154B2, “Method for detecting cancer cell” (ARKRAY, Inc., priority 2010, dated 2017).
# Assays:
# [1] = tested on: human fibrosarcoma cell line HT1080; experiment: Labeled sugar incorporation, fluorescence microscopy image analysis (positive rate); type: cell-based; conditions: for Positive rate (Cancer cells): Fibrosarcoma, threshold value 370; for Positive rate of cancer cells: fibrosarcoma cell line
# Description: In accordance with the conventional method, cultured human fibrosarcoma cell line HT1080 (DS Pharma Biomedical Co., Ltd.) was harvested with trypsin (Invitrogen). The human gastric cancer cell line SNU-1 (ATCC), which is a suspension cell line, was directly harvested without any trypsin treatment. The cell suspension of the harvested cancer cells was centrifuged, and the supernatant was removed. The cells were resuspended with Dulbecco's PBS (−) (Nissui Pharmaceutical Co., Ltd.) and centrifuged, and the supernatant was removed again.
# (§1) When performing the hemolyzing treatment, the blood cell fraction collected as described above was hemolyzed using ammonium chloride (STEMCELL Technologies) according to the manufacture's manuals.
# (§2) The number of the cells was counted for each cell line using a hemacytometer in accordance with the conventional method, and then 10^5 to 10^6 cells per sample (cell suspension) was aliquoted. Each of the sample was centrifuged to remove the supernatant. Subsequently, 2-NBDG (Wako Pure Chemical Industries, Ltd.; at the final concentration given in Table 3 or 4) dissolved in Dulbecco's PBS (−) was added thereto, and the cells were suspended well. After the reaction, Dulbecco's PBS (−) was added to the mixture, and the resultant was centrifuged to remove the supernatant. The cells were resuspended with Dulbecco's PBS (−) and centrifuged, and the supernatant was removed again. The steps of resuspending cells with Dulbecco's PBS (−), centrifuging and removing the supernatant were then repeated 2 to 3 times, thereby washing the cells thoroughly. The cells were resuspended with Dulbecco's PBS (−), the concentration thereof was adjusted, and then added dropwise to a 384-well plate. The plate was centrifuged to spin down the cells. The image was captured with a fluorescence microscope (Nikon Corp.) using B-2A filter combination (Nikon Corp.). The B-2A set covers the following wavelengths. EX (excitation wavelength): 475±15 nm, DM: 505 nm or longer, BA (fluorescence wavelength) 520 nm or longer.
# (§3) The acquired images were analyzed using an image analysis software NIS-ELEMENTS (trade name, Nikon Corp.) to evaluate the fluorescence intensity of the cell. […]
# (§4) In a manner similar to Example 2, each of human breast adenocarcinoma cells (cell line name: MCF-7; DS Pharma Biomedical Co., Ltd.), human colon adenocarcinoma cells (cell line name: SW620; DS Pharma Biomedical Co., Ltd.), human prostate cancer cells (cell line name: PC3; DS Pharma Biomedical Co., Ltd.), human alveolar epithelial cancer cells (cell line name: NCI-H358; DS Pharma Biomedical Co., Ltd.), human gastric cancer cells (cell line name: SNU-1; ATCC) and human fibrosarcoma cells (cell line name: HT1080; DS Pharma Biomedical Co., Ltd.) was detected with the labeled sugar (2-NBDG).
# [2] = tested on: human breast adenocarcinoma cells (MCF-7); experiment: as above; type: cell-based; conditions: hemolyzed, 10 mM, 5 min, 23° C., threshold value 330
# Experimental: as §2
# (§5) The acquired images were analyzed using an image analysis software NIS-ELEMENTS (trade name, Nikon Corp.) to evaluate the fluorescence intensity of the cell.
# as §4
# [3] = tested on: human prostate cancer cells (PC3); experiment: as above; type: cell-based; conditions: hemolyzed, 10 mM, 5 min, 23° C., threshold value 880
# Experimental: as §2, §5, §4
# [4] = tested on: human alveolar epithelial cancer cells (NCI-H358); experiment: as above; type: cell-based; conditions: hemolyzed, 10 mM, 5 min, 23° C., threshold value 370
# Experimental: as §2, §5, §4
# [5] = tested on: human colon adenocarcinoma cells (SW620); experiment: as above; type: cell-based; conditions: threshold value 280
# Experimental: as §2, §5, §4
# Blood cells = experiment: Labeled sugar incorporation, fluorescence microscopy image analysis (false-positive/negative rate); type: cell-based, human; conditions: hemolyzed, 10 mM, 5 min, 23° C.; for Negative rate (Blood cells) / Positive rate of cancer cells (Blood cell data): fresh blood
# Description: Blood was collected from a human subject using a vacuum blood collection tube (with EDTA•2K). Blood cells were separated using HetaSep (STEMCELL Technologies) in accordance with manufacturer's instructions.
# as §1, §2, §3
# [6] = hemolyzed, 10 mM, 5 min, 23° C.
# [7] = single, Glucose conc.: 1 mM, Temp.: 37° C., Time: 30 min
# [8] = threshold value 280 (Colon adenocarcinoma)
# [9] = threshold value 330 (Breast adenocarcinoma)
# [10] = threshold value 370 (Alveolar epithelial cancer)
# [11] = threshold value 370 (Fibrosarcoma)
# [12] = threshold value 490 (Gastric cancer)
compound,measurement,setting,value
"O=[N+]([O-])c1ccc(N[C@H]2C(O)O[C@H](CO)[C@@H](O)[C@@H]2O)c2nonc12 (stereo partly drawn) [2-NBDG, 2-[N-(7-nitrobenz-2-oxa-1,3-diazol-4-yl)amino]-2-deoxy-D-glucose]",Positive rate (Cancer cells),[1]; [6],100.0%
same,Positive rate (Cancer cells),[1]; [7],100.0%
same,Positive rate of cancer cells,"[1]; Mean luminance, hemolyzed, 10 mM, 5 min, 23° C., threshold value 436",100.0%
same,Positive rate of cancer cells,"[1]; Total luminance, hemolyzed, 10 mM, 5 min, 23° C., threshold value 35,000",90.7%
same,Positive rate (Fibrosarcoma cell line),[1]; [6],100.0%
same,Positive rate (HT1080 cells),"[1]; hemolyzed, 0.1 mM, 37° C., 30 min, threshold value 380",33.3%
same,Positive rate (HT1080 cells),"[1]; hemolyzed, 1 mM, 37° C., 30 min, threshold value 520",73.1%
same,Positive rate (HT1080 cells),"[1]; hemolyzed, 10 mM, 37° C., 30 min, threshold value 1150",95.0%
same,Positive rate (HT1080 cells),"[1]; hemolyzed, 4° C., 10 mM, 5 min, threshold value 640",79.0%
same,Positive rate (HT1080 cells),"[1]; hemolyzed, 23° C., 10 mM, 5 min, threshold value 640",81.1%
same,Positive rate (HT1080 cells),"[1]; hemolyzed, 37° C., 10 mM, 5 min, threshold value 750",89.4%
same,Positive rate (HT1080 cells),"[1]; hemolyzed, 5 min, 10 mM, 37° C., threshold value 570",119.8%
same,Positive rate (HT1080 cells),"[1]; hemolyzed, 30 min, 10 mM, 37° C., threshold value 880",107.8%
same,Positive rate (HT1080 cells),"[1]; hemolyzed, 60 min, 10 mM, 37° C., threshold value 750",102.9%
same,Positive rate (Fibrosarcoma cell line),"[1]; not hemolyzed, 10 mM, 5 min, 23° C.",92.6%
same,Positive rate (HT1080 cells),"[1]; without hemolyzing treatment, 0.1 mM, 37° C., 30 min, threshold value 280",51.8%
same,Positive rate (HT1080 cells),"[1]; without hemolyzing treatment, 1 mM, 37° C., 30 min, threshold value 330",89.5%
same,Positive rate (HT1080 cells),"[1]; without hemolyzing treatment, 10 mM, 37° C., 30 min, threshold value 450 (concentration series)",90.0%
same,Positive rate (HT1080 cells),"[1]; without hemolyzing treatment, 4° C., 10 mM, 5 min, threshold value 310",94.9%
same,Positive rate (HT1080 cells),"[1]; without hemolyzing treatment, 23° C., 10 mM, 5 min, threshold value 360",92.6%
same,Positive rate (HT1080 cells),"[1]; without hemolyzing treatment, 37° C., 10 mM, 5 min, threshold value 390",101.5%
same,Positive rate (HT1080 cells),"[1]; without hemolyzing treatment, 5 min, 10 mM, 37° C., threshold value 380",92.6%
same,Positive rate (HT1080 cells),"[1]; without hemolyzing treatment, 30 min, 10 mM, 37° C., threshold value 450 (time series)",97.1%
same,Positive rate (HT1080 cells),"[1]; without hemolyzing treatment, 60 min, 10 mM, 37° C., threshold value 500",98.4%
same,Positive rate (Cancer cells),[2],100.0%
same,Positive rate (Cancer cells),[3],69.8%
same,Positive rate (Cancer cells),[4],83.0%
same,Positive rate (Cancer cells),[5]; [6],100.0%
same,Positive rate (Cancer cells),[5]; [7],100.0%
same,Negative rate (Blood cells),Blood cells; Mean luminance,95.2%
same,Positive rate of cancer cells (Blood cell data),Blood cells; Mean luminance,4.8%
same,Negative rate (Blood cells),Blood cells; Total luminance,91.0%
same,Positive rate of cancer cells (Blood cell data),Blood cells; Total luminance,9.0%
same,Negative rate (Blood cells (fresh blood)),Blood cells,95.2%
same,Positive rate (Blood cells (fresh blood)),Blood cells,4.8%
same,Negative rate (Blood cells (fresh blood)),Blood cells; [8],96.6%
same,Positive rate (Blood cells (fresh blood)),Blood cells; [8],3.4%
same,Negative rate (Blood cells (fresh blood)),Blood cells; [9],94.2%
same,Positive rate (Blood cells (fresh blood)),Blood cells; [9],5.8%
same,Negative rate (Blood cells (fresh blood)),Blood cells; [10],98.3%
same,Positive rate (Blood cells (fresh blood)),Blood cells; [10],1.7%
same,Negative rate (Blood cells (fresh blood)),Blood cells; [11],95.2%
same,Positive rate (Blood cells (fresh blood)),Blood cells; [11],4.8%
same,Negative rate (Blood cells (fresh blood)),Blood cells; [12],100.0%
same,Positive rate (Blood cells (fresh blood)),Blood cells; [12],0.0%
